# Test system: Diaphorina citri Kuwayama
# Type: in vivo
# Details: solution at 1 μg/L in n-hexane applied to citrus leaves, compared to solvent n-hexane, 40 min
row,Compound,effect on Diaphorina citri Kuwayama selection preference
1,C=C1CC/C=C(\C)CC[C@@H]2[C@@H]1CC2(C)C [β-caryophyllene],significant repulsive effect
2,(E)-β-farnesene,significant repulsive effect
